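At the GI50, growth is halved. Definition used: TGI = concentration required for complete inhibition of growth.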
How the values were obtained:
Assay in all cases: NCI anticancer screen, dose series, 384-well format
[1] = system: OVCAR-8 ovarian
[2] = system: NCI/ADR-RES ovarian
[3] = system: M14 melanoma
[4] = system: PC-3 prostate
[5] = system: HCC-2998 colon
[6] = system: RPMI-8226 leukemia
[7] = system: CAKI-1 renal
[8] = system: UACC-62 melanoma
[9] = system: A498 renal
[10] = system: HCT-15 colon
[11] = system: U251 glioblastoma
[12] = system: SK-MEL-28 melanoma
[13] = system: MDA-MB-435 melanoma
[14] = system: SR leukemia
[15] = system: MOLT-4 leukemia
[16] = system: HCT-116 colon
[17] = system: NCI-H322M lung
[18] = system: NCI-H522 lung
[19] = system: SK-OV-3 ovarian
[20] = system: HOP-62 NSCLC
[21] = system: SK-MEL-5 melanoma
[22] = system: KM12 colon
[23] = system: MDA-MB-468 breast
[24] = system: NCI-H23 lung
[25] = system: SNB-19 CNS
[26] = system: IGROV1 ovarian
[27] = system: T-47D breast
[28] = system: SF-539 CNS
[29] = system: LOX IMVI melanoma
[30] = system: OVCAR-3 ovarian
[31] = system: SW-620 colon
[32] = system: COLO 205 colon
[33] = system: SN12C renal
[34] = system: OVCAR-5 ovarian
[35] = system: SF-295 CNS
[36] = system: 786-0 renal
[37] = system: MCF7 breast
[38] = system: UACC-257 melanoma
[39] = system: HS 578T breast
[40] = system: NCI-H226 lung
[41] = system: OVCAR-4 ovarian
[42] = system: ACHN renal
[43] = system: HT29 colon
[44] = system: HOP-92 NSCLC
[45] = system: NCI-H460 NSCLC
[46] = system: MALME-3M melanoma
[47] = system: TK-10 renal
[48] = system: SF-268 CNS
[49] = system: HL-60(TB) leukemia
[50] = system: MDA-MB-231 breast
[51] = system: A549 NSCLC
[52] = system: BT-549 breast
[53] = system: DU-145 prostate

`CO[C@H]1C[C@@H]2CC[C@@H](C)[C@@](O)(O2)C(=O)C(=O)N2CCCC[C@H]2C(=O)O[C@H]([C@H](C)C[C@@H]2CC[C@@H](OC(=O)C(C)(CO)CO)[C@H](OC)C2)CC(=O)[C@H](C)/C=C(\C)[C@@H](O)[C@@H](OC)C(=O)[C@H](C)C[C@H](C)/C=C/C=C/C=C/1C` was tested, and the GI50 [1] was 0.791 µM, the TGI [1] was 15.9 µM and the GI50 [2] was 4.89 µM. It also gave a TGI [2] of 22.5 µM, a GI50 [3] of 5.55 µM and a TGI [3] of 19.8 µM. It also gave a GI50 [4] of 1.16 µM, a TGI [4] of 11.8 µM and a GI50 [5] of 1.2 µM. It also gave a TGI [5] of 11.6 µM, a TGI [6] of 1.06 µM and a GI50 [7] of 1.26 µM. The TGI [7] was 15.1 µM, the GI50 [8] was 1.79 µM and the TGI [8] was 15 µM. The TGI [9] was 14.5 µM, the GI50 [10] was 0.473 µM and the TGI [10] was 15 µM. It also gave a GI50 [11] of 2.22 µM, a TGI [11] of 14 µM and a GI50 [12] of 3.04 µM. It also gave a TGI [12] of 14.7 µM, a GI50 [13] of 11.4 µM and a TGI [13] of 23.6 µM. It also gave a TGI [14] of 0.441 µM, a TGI [15] of 1.54 µM and a GI50 [16] of 3.23 µM. The TGI [16] was 15.5 µM, the GI50 [17] was 1.32 µM and the TGI [17] was 12.7 µM. It also gave a GI50 [18] of 2.23 µM, a TGI [18] of 11.5 µM and a GI50 [19] of 11.6 µM. It also gave a TGI [19] of 27.5 µM, a GI50 [20] of 0.233 µM and a TGI [20] of 13.3 µM. It also gave a GI50 [21] of 1.63 µM, a TGI [21] of 11.4 µM and a GI50 [22] of 2.22 µM. It also gave a TGI [22] of 17.4 µM, a TGI [23] of 2.53 µM and a GI50 [24] of 1.93 µM. The TGI [24] was 15.7 µM, the GI50 [25] was 5.96 µM and the TGI [25] was 20.2 µM. The TGI [26] was 5.04 µM, the TGI [27] was 5.11 µM and the GI50 [28] was 1.12 µM. It also gave a TGI [28] of 15.1 µM, a GI50 [29] of 1.19 µM and a TGI [29] of 11.3 µM. It also gave a GI50 [30] of 0.867 µM, a TGI [30] of 13.9 µM and a GI50 [31] of 11.2 µM. For the same compound, the TGI [31] was 23.9 µM, the GI50 [32] was 11.2 µM and the TGI [32] was 23.3 µM. The GI50 [33] was 4.56 µM, the TGI [33] was 19.2 µM and the GI50 [34] was 12.5 µM. It also gave a TGI [34] of 25.4 µM, a TGI [35] of 3.62 µM and a GI50 [36] of 0.148 µM. The TGI [36] was 14.2 µM, the TGI [37] was 10.1 µM and the GI50 [38] was 8.32 µM. It also gave a TGI [38] of 20.3 µM, a TGI [39] of 1.74 µM and a GI50 [40] of 1.11 µM. For the same compound, the TGI [40] was 4.08 µM, the GI50 [41] was 1.53 µM and the TGI [41] was 12.6 µM. The GI50 [42] was 2.31 µM, the TGI [42] was 15.1 µM and the GI50 [43] was 2.33 µM. The TGI [43] was 12.8 µM, the GI50 [44] was 2.75 µM and the TGI [44] was 8.39 µM. The GI50 [45] was 0.404 µM, the TGI [45] was 15.5 µM and the TGI [46] was 3.29 µM. For the same compound, the GI50 [47] was 12 µM, the TGI [47] was 26.3 µM and the GI50 [48] was 2.81 µM. It also gave a TGI [48] of 14.1 µM, a GI50 [49] of 1.63 µM and a TGI [49] of 3 µM. It also gave a GI50 [50] of 1.82 µM, a TGI [50] of 7.89 µM and a TGI [51] of 15.4 µM. It also gave a TGI [52] of 1.7 µM, a GI50 [53] of 1.05 µM and a TGI [53] of 15.7 µM.
